Laboratory results: patent publication US20230256007A1 (priority 2022, published 2023)

Test system: patient with sequelae of coronavirus pneumonia (omicron variant of coronavirus)
Details: human, in vivo

[HH] [hydrogen gas, hydrogen]
Daily headache and migraine that occurred several times a day: relieved
Generalized pain, difficulty breathing, feeling of faintness, malaise, fatigue after exertion, sleeping disorder, low-grade fever, bradycardia, blood pressure drop: continues to alleviate symptoms
State of pulmonary fibrosis: improving
Time after which sleeping disorder improved: about 3 days
